Data: patent US9714275B2, “Cancer antigen” (Cadila Pharmaceuticals Ltd., priority 2011, dated 2017)

Assays:
Type in all cases: cell-based
B16 melanoma cells = assay: Protein profile (SDS-PAGE) of treated melanoma cells; conditions: cisplatin 5 μg/ml, paclitaxel 150 μg/ml, gemcitabine 800 nm; serum free media, 37° C.; vs untreated cell profile
Protocol: (§1) The B16 melanoma cells were treated with, cisplatin at 5 μg/ml, paclitaxel at 150 μg/ml,and gemcitabine at 800 nm. The treatment was carried out in serum free media at 37° C. The cells were lysed and SDS-PAGE was run to obtain proteomic profile. Thus obtained profiles were overlapped with the untreated cell protein profile. The protein profile was noticed for each treatment. The differently expressed protein was identified at 36 KDa.
36 KDa protein is commonly expressed protein when melanoma cells are treated with, cisplatin, paclitaxel, gemcitabine, or combination there of.

Mia-Pa-Ca-2 cells = assay: Protein profile (SDS-PAGE) of treated pancreatic cancer cells; conditions: Mw 1:500, cisplatin 5 μg/ml, paclitaxel 150 μg/ml, gemcitabine 800 nm; serum free media, 37° C.; vs untreated cell profile
Protocol: as §1, with “Mia-Pa-Ca-2” for “B16 melanoma”, “with Mw Cells in ratio 1:500,” for “with,”, “μg/ml, and” for “μg/ml,and”, “45” for “36”
45 KDa protein is commonly over expressed protein when pancreatic cancer cells are treated with Mw, cisplatin, paclitaxel, gemcitabine, or combination there of.

[1] = tested on: Lung cancer cell lines (A549 and L132); assay: Protein profile (SDS PAGE and Western blot) of Mw treated lung cancer cell lines; conditions: Mw/cells 1:100, 4 hours at 37° C.; vs untreated cell profile
Protocol: Different Lung cancer cell lines (A549 and L132) were treated with Mw/cells in the ratio of 1:100. Each treatment group contained 4×10E6 cells. Cells treated with Mw were incubated for 4 hours at 37° C. After treatment, cells were pelleted and supernatant was discarded. Cells were then resuspended in DPBS (400 μl). Cells were then sonicated for 15 minutes with pulse of 10 seconds on and 20 seconds off. The lysate obtained was estimated for the protein content using BCA Protein assay and protein was normalized to load 30 μg protein in each well. This was followed by 12% reducing SDS PAGE and Western blot analysis to obtain protein profile and humoral response. Thus obtained profile was compared with untreated cell protein profile.

Row | Compound | commonly expressed protein after treatment (SDS-PAGE band) (B16 melanoma cells) [KDa] | commonly over expressed protein after treatment (SDS-PAGE band) (Mia-Pa-Ca-2 cells) [KDa] | common protein in both treated cell lines [1] [KDa]
1 | CC(=O)O[C@H]1C(=O)[C@@]2(C)[C@H]([C@H](OC(=O)c3ccccc3)[C@]3(O)C[C@H](OC(=O)[C@H](O)[C@@H](NC(=O)c4ccccc4)c4ccccc4)C(C)=C1C3(C)C)[C@]1(OC(C)=O)CO[C@@H]1C[C@@H]2O [paclitaxel] | 36 | 45 | –
2 | Nc1ccn([C@@H]2O[C@H](CO)[C@@H](O)C2(F)F)c(=O)n1 [gemcitabine] | 36 | 45 | –
3 | Mycobacterium w [Mw] | – | 45 | 43
4 | N.N.[Cl][Pt][Cl] [cisplatin] | 36 | 45 | –
